Reference: patent US10519115B2, “Antidiabetic tricyclic compounds” (Merck Sharp & Dohme Corp., priority 2013, dated 2019)

What was measured:
[1] = molecular target: T1, Human GPR40 (Homo sapiens, UniProt O14842); assay: FLIPR assay (agonist-induced calcium mobilization, GPR40/CHO NFAT BLA cells); assay type: cell-based; parameters: expressed in transfected cells
Protocol: (§1) Human and mouse GPR40 stable cell-lines were generated in CHO cells stably expressing NFAT BLA (Beta-lactamase). A human GPR40 stable cell-line was generated in HEK cells stably expressing the aequorin expressing reporter. The expression plasmids were transfected using lipofectamine (Life Technologies) following manufacturer's instructions. Stable cell-lines were generated following drug selection.
FLIPR (Fluorimetric Imaging Plate Reader, Molecular Devices) assays were performed to measure agonist-induced calcium mobilization of the stable clones. For the FLIPR assay, one day before assay, GPR40/CHO NFAT BLA cells were seeded into black-wall-clear-bottom 384-well plates (Costar) at 1.4×10e4 cells/20 μL medium/well. The cells were incubated with 20 μl/well of the assay buffer (HBSS, 0.1% BSA, 20 mM HEPES, 2.5 mM probenecid, pH 7.4) containing 8 μM fluo-4, AM, 0.08% pluronic acid at room temperature for 100 minutes. Fluorescence output was measured using FLIPR. Compounds were dissolved in DMSO and diluted to desired concentrations with assay buffer. 13.3 μL/well of compound solution was added.

[2] = molecular target: T1, Human GPR40; assay: Inositol Phosphate Turnover Assay 1 (HEK cells stably expressing human GPR40); assay type: cell-based; parameters: expressed in transfected cells; host or cells: HEK cells stably expressing the aequorin reporter; details: HEK cells stably expressing human GPR40, 96-well, 3H-inositol; read-out: Human GPR40 IP1 Assay 1, EC50
Protocol: as §1
The assay was performed in 96-well format. HEK cells stably expressing human GPR40 were plated to be 60-80% confluent within 72 h. After 72 h, the plates were aspirated and the cells washed with inositol-free DMEM (ICN). The wash media was replaced with 150 μL of 3H-inositol labeling media (inositol-free media containing 0.4% human albumin or 0.4% mouse albumin, 1× pen/strep antibiotics, glutamine, 25 mM HEPES to which was added 3H-myo-inositol NEN #NET114A 1 mCi/mL, 25 Ci/mmol diluted 1:150 in loading media with a final specific radioactivity of 1 μCi/150 μL). Alternatively, the human and mouse albumin can be added after the overnight labeling step before the addition of LiCl.
The assay was typically run the next day after 18 h labeling. On the day of the assay, 5 μL of 300 mM LiCl was added to all wells and incubated at 37 degrees for 20 min. 0.75 μL of 200× compounds were added and incubated with the cells for 60 min at 37 degrees. The media was then aspirated off and the assay terminated with the addition of 60 μL 10 mM formic acid. The cells were lysed for 60 min at room temperature. 15-30 μL of lysate was mixed with 70 μL/1 mg YSi SPA beads (Amersham) in clear bottom Isoplates. The plates were shaken for 2 h at room temperature. Beads were allowed to settle and the plates were counted in the Wallac Microbeta.

T1 sequence (O14842 whole entry): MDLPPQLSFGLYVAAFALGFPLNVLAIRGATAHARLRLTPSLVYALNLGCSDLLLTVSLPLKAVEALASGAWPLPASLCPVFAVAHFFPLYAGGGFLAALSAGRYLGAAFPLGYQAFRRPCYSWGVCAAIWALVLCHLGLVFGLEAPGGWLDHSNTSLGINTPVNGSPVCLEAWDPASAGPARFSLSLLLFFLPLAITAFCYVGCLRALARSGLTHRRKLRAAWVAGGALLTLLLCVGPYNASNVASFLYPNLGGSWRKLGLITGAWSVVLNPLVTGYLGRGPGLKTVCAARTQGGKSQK

SMILES | EC50 [1] | EC50 [2]
CS(=O)(=O)N1CC2(CN(c3ccc(-c4cc(COc5cc6c(cn5)[C@H]5[C@@H](C6)[C@@H]5C(=O)O)c(F)cc4C(F)(F)F)c(F)c3)C2)C1 [Compound-4, (5aR,6S,6aS)-3-((2′,4-difluoro-4′-(6-(methylsulfonyl)-2,6-diazaspiro[3,3]heptan-2-yl)-6-(trifluoromethyl)-[1,1′-biphenyl]-3-yl)methoxy)-5,5a,6,6a-tetrahydrocyclopropa[4,5]-cyclopenta[1,2-c]pyridine-6-carboxylic acid] | 10 nM | 19 nM
Cn1nnc(-c2ccc(-c3cc(COc4cc5c(cn4)[C@H]4[C@@H](C5)[C@@H]4C(=O)O)c(F)cc3C(F)(F)F)c(F)c2)n1 [Compound-7, (5aR,6S,6aS)-3-((2′,4-difluoro-4′-(2-methyl-2H-tetrazol-5-yl)-6-(trifluoromethyl)-[1,1′-biphenyl]-3-yl)methoxy)-5,5a,6,6a-tetrahydrocyclopropa[4,5]cyclopenta[1,2-c]pyridine-6-carboxylic acid] | 6.7 nM | 3.4 nM
O=C(O)[C@H]1[C@@H]2Cc3cc(OCc4cc(-c5ccc(-c6ccc(Cl)cc6F)cc5F)c(C(F)(F)F)cc4F)ncc3[C@@H]21 [Compound-8, (5aR,6S,6aS)-3-((4″-chloro-2′,2″,4-trifluoro-6-(trifluoromethyl)-[1,1′:4′,1″-terphenyl]-3-yl)methoxy)-5,5a,6,6a-tetrahydrocyclopropa[4,5]cyclopenta[1,2-c]pyridine-6-carboxylic acid] | 12 nM | 63 nM
CC(C)(O)Cn1cc2c(n1)CN(c1ccc(-c3cc(COc4cc5c(cn4)[C@H]4[C@@H](C5)[C@@H]4C(=O)O)c(F)cc3C(F)(F)F)c(F)c1)C2 [Compound-13, (5aR,6S,6aS)-3-((2′,4-difluoro-4′-(2-(2-hydroxy-2-methylpropyl)pyrrolo[3,4-c]pyrazol-5(2H,4H,6H)-yl)-6-(trifluoromethyl)-[1,1′-biphenyl]-3-yl)methoxy)-5,5a,6,6a-tetrahydrocyclo-propa[4,5]cyclopenta[1,2-c]pyridine-6-carboxylic acid] | 6.7 nM | 15 nM

Molecules with a lower EC50 [1], results first:

EC50 [1] | EC50 [2] | SMILES
4.2 nM | 13 nM | CS(=O)(=O)N1CCC(c2ccc(-c3cc(COc4cc5c(cn4)[C@H]4[C@@H](C5)[C@@H]4C(=O)O)c(F)cc3C(F)(F)F)cc2)CC1 [Compound-5, (5aR,6S,6aS)-3-((4-fluoro-4′-(1-(methylsulfonyl)piperidin-4-yl)-6-(trifluoromethyl)-[1,1′-biphenyl]-3-yl)methoxy)-5,5a,6,6a-tetrahydrocyclopropa[4,5]cyclopenta[1,2-c]pyridine-6-carboxylic acid]
4.2 nM | 47 nM | O=C(O)[C@H]1[C@@H]2Cc3cc(OCc4cc(-c5ccc(C6CCN(S(=O)(=O)C7CC7)CC6)cc5)c(C(F)(F)F)cc4F)ncc3[C@@H]21 [Compound-6, (5aR,6S,6aS)-3-((4′-(1-(cyclopropylsulfonyl)piperidin-4-yl)-4-fluoro-6-(trifluoromethyl)-[1,1′-biphenyl]-3-yl)methoxy)-5,5a,6,6a-tetrahydrocyclopropa[4,5]cyclopenta[1,2-c]pyridine-6-carboxylic acid]
5.6 nM | 6.8 nM | CC1(O)CCN(c2ccc(-c3cc(COc4cc5c(cn4)[C@H]4[C@@H](C5)[C@@H]4C(=O)O)c(F)cc3C(F)(F)F)c(F)c2)CC1 [Compound-11, (5aR,6S,6aS)-3-((2′,4-difluoro-4′-(4-hydroxy-4-methylpiperidin-1-yl)-6-(trifluoromethyl)-[1,1′-biphenyl]-3-yl)methoxy)-5,5a,6,6a-tetrahydrocyclopropa[4,5]cyclopenta[1,2-c]pyridine-6-carboxylic acid]
6.1 nM | 20 nM | CC(C)(O)C1CCN(c2ccc(-c3cc(COc4cc5c(cn4)[C@H]4[C@@H](C5)[C@@H]4C(=O)O)c(F)cc3C(F)(F)F)c(F)c2)CC1 [Compound-12, (5aR,6S,6aS)-3-((2′,4-difluoro-4′-(4-(2-hydroxypropan-2-yl)piperidin-1-yl)-6-(trifluoromethyl)-[1,1′-biphenyl]-3-yl)methoxy)-5,5a,6,6a-tetrahydrocyclopropa[4,5]cyclopenta[1,2-c]-pyridine-6-carboxylic acid]
